What was measured:
cA3+ hB3 = target: T1, cA3+ hB3 (Canis lupus familiaris; Homo sapiens, UniProt A0A068LEV2+Q9NQW8); test: inside-out patch electrophysiology, current block; type: biochemical; conditions: 25 µM; channel block; 25 µM L-cis-diltiazem with 100 µM cGMP, -60 mV, 120 mM NaCl, EDTA/EGTA, pH 7.4, room temperature
T1 construct: gene CNGA3; inter-species heterotetramer: canine CNGA3 with C-terminal YFP co-expressed with untagged human CNGB3 (pcDNA3.1) in tSA201 cells; stoichiometry debated (2:2 or 3:1)
T1 sequence (A0A068LEV2 1-708): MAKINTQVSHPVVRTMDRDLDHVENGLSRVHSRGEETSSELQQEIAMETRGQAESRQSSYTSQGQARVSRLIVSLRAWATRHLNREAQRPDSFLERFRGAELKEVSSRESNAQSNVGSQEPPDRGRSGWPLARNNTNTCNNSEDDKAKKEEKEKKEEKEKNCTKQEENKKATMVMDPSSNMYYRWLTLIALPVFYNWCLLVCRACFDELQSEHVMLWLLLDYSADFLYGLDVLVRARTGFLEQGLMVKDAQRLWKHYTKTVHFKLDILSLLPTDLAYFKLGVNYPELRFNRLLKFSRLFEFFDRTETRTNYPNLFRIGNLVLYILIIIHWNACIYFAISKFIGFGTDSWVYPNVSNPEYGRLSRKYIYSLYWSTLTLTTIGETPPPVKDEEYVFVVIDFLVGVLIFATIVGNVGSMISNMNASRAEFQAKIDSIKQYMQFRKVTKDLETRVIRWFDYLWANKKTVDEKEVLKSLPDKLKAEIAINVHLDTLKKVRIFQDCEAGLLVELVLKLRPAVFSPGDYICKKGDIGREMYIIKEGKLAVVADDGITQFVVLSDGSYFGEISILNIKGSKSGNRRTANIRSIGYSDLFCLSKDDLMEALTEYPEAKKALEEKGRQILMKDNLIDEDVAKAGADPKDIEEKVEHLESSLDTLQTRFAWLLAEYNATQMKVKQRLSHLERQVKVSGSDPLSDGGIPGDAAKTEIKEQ
T1 sequence (Q9NQW8 1-809): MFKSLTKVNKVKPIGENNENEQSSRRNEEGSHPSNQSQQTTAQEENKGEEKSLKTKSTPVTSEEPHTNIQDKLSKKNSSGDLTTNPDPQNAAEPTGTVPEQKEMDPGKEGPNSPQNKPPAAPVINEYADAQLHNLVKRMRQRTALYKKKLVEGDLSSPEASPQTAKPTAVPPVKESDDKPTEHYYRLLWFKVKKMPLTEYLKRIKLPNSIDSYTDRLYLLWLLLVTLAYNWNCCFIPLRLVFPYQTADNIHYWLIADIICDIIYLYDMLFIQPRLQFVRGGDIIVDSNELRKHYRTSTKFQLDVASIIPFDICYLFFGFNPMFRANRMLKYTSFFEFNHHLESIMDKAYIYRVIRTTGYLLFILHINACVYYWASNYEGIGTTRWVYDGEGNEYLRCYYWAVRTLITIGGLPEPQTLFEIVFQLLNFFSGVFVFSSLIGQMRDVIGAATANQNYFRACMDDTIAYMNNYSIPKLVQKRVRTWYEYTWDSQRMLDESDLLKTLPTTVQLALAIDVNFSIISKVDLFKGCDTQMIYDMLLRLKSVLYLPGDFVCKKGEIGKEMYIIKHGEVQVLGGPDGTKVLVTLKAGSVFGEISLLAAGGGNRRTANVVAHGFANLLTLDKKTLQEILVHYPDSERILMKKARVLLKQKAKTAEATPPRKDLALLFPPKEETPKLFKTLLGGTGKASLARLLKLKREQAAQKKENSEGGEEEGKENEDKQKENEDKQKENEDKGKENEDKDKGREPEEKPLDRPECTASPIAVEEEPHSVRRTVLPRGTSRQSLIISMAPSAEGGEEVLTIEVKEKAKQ
From the text: inside-out patch electrophysiology, current block on cA3+ hB3

cA3 = target: T2, cA3 (Canis lupus, UniProt A0A068LEV2); test: inside-out patch electrophysiology, current block; type: biochemical; conditions: 25 µM; channel block; 25 µM L-cis-diltiazem with 100 µM cGMP, -60 mV, 120 mM NaCl, EDTA/EGTA, pH 7.4, room temperature
T2 construct: gene CNGA3; full-length coding region cloned from canine retina, C-terminal YFP (pEYFP-N1, stop removed), tSA201 cells, homotetramer
T2 sequence (A0A068LEV2 1-708): T1 sequence (A0A068LEV2 1-708)
From the text: inside-out patch electrophysiology, current block on cA3

Idil/I (cA3+ hB3): 0.40±0.02
Idil/I (cA3): 0.79±0.05
Compound: COc1ccc([C@H]2Sc3ccccc3N(CCN(C)C)C(=O)[C@H]2OC(C)=O)cc1 [L-cis-diltiazem]

— publication PMC3931646, “A Cyclic Nucleotide-Gated Channel Mutation Associated with Canine Daylight Blindness Provides Insight into a Role for the S2 Segment Tri-Asp motif in Channel Biogenesis” (PLoS ONE, 2014)
